Numbers after ± are expanded uncertainties.
What was measured:
[1] = xn = mol fraction of the nth substance listed; settings: 100 kPa, Liquid, x1 = 1; for speed of sound: Frequency=2 MHz, Linear variable-path acoustic interferometer; for mass density: Vibrating tube method
[2] = 100 kPa, Liquid; for speed of sound: Frequency=2 MHz, Linear variable-path acoustic interferometer; for mass density: Vibrating tube method

SMILES	speed of sound ([1]; 303.15 K) [m/s]	mass density ([1]; 303.15 K) [kg/m3]	mass density ([1]; 308.15 K) [kg/m3]	speed of sound ([1]; 313.15 K) [m/s]	mass density ([1]; 313.15 K) [kg/m3]	mass density ([1]; 318.15 K) [kg/m3]	speed of sound ([2]; 303.15 K) [m/s]	mass density ([2]; 303.15 K) [kg/m3]	mass density ([2]; 308.15 K) [kg/m3]	speed of sound ([2]; 313.15 K) [m/s]	mass density ([2]; 313.15 K) [kg/m3]	mass density ([2]; 318.15 K) [kg/m3]
CCO [ethanol] + Cc1cccc(O)c1	1127 ± 2.4	781.08 ± 1.2	776.59 ± 1.2	1094 ± 2.4	772.23 ± 1.2	767.61 ± 1.2	–	–	–	–	–	–
Cc1ccccc1O [2-methylphenol]	–	–	–	–	–	–	1488.1 ± 2.5	1037.02 ± 1.2	1032.58 ± 1.2	1453 ± 2.5	1028.19 ± 1.2	1023.82 ± 1.2
CCO [ethanol]	–	–	–	–	–	–	1127 ± 2.4	781.08 ± 1.2	776.59 ± 1.2	1094 ± 2.4	772.23 ± 1.2	767.61 ± 1.2
CCO [ethanol] + Cc1ccccc1O	1127 ± 2.4	781.08 ± 1.2	776.59 ± 1.2	1094 ± 2.4	772.23 ± 1.2	767.61 ± 1.2	–	–	–	–	–	–
Cc1cccc(O)c1 [3-methylphenol]	–	–	–	–	–	–	1466.1 ± 2.5	1025.71 ± 1.2	1021.7 ± 1.2	1436.1 ± 2.5	1017.69 ± 1.2	1013.65 ± 1.2
CCO [ethanol] + Cc1ccc(O)cc1	1127 ± 2.4	781.08 ± 1.2	776.59 ± 1.2	1094 ± 2.4	772.23 ± 1.2	767.61 ± 1.2	–	–	–	–	–	–
Cc1ccc(O)cc1 [4-methylphenol]	–	–	–	–	–	–	1473 ± 2.5	1026.47 ± 1.2	1022.56 ± 1.2	1440.2 ± 2.5	1018.64 ± 1.2	1014.68 ± 1.2

From the NIST ThermoML archive (doi:10.1016/j.jct.2018.12.039)
